Experiments:
[1] = molecular target: Amyloid-beta precursor protein (Homo sapiens, UniProt P05067); test: Inhibition of amyloid beta (1 to 40) (unknown origin) aggregation
Mus musculus [2] = species: Mus musculus; test: Reduction in amyloid beta levels in Tg2576 mouse; type: functional
Mus musculus [3] = species: Mus musculus; test: Reduction in amyloid beta plaques in Tg2576 mouse; type: functional

Sequence of Amyloid-beta precursor protein (P05067 whole entry): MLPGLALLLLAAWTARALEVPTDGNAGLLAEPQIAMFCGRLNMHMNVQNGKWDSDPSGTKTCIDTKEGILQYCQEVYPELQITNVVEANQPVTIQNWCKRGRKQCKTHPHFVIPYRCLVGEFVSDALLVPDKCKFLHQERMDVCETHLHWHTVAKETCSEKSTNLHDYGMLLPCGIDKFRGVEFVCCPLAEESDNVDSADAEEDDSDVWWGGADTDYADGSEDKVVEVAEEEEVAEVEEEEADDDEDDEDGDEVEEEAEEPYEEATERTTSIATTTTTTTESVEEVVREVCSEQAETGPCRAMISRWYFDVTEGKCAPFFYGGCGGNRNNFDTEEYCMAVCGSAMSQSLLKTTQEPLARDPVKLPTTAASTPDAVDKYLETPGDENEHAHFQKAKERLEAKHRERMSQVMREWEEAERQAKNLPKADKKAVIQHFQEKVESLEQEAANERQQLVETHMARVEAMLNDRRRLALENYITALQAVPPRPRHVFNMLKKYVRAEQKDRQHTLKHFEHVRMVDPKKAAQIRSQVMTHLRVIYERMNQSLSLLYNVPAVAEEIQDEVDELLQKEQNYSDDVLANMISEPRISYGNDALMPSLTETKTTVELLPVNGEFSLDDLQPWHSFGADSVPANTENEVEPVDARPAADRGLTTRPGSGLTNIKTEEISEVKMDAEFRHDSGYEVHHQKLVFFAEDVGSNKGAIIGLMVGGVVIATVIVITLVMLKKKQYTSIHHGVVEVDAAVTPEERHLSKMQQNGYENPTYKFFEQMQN

IC50 [1]	SMILES	inhibition (INH) (Mus musculus [2])	inhibition (INH) (Mus musculus [3])
2750 nM	CNc1ccc(C(=O)NC(CCCCCNC(=O)OCc2ccccc2)C(=O)O)cc1 (centres undefined)	–	–
–	O=C(O[C@@H]1Cc2c(O)cc(O)cc2O[C@@H]1c1cc(O)c(O)c(O)c1)c1cc(O)c(O)c(O)c1 [EPIGALOCATECHIN GALLATE]	50%	50%
1950 nM	O=C(Cc1ccccc1)NC(CSSCC(NC(=O)Cc1ccccc1)C(=O)O)C(=O)O (centres undefined)	–	–

From ChEMBL document CHEMBL3400095, “β-sheet interfering molecules acting against β-amyloid aggregation and fibrillogenesis” (Bioorg Med Chem, 2015)
